Data on six molecules can be found in PubChem BioAssay AID1745844 (Carcinogenic Potency Database (CPDB), 2022).

The subject of this data set is rodent lifetime carcinogenesis bioassay, tumor incidence TD50. Put plainly: chronic cancer bioassays in animals – CPDB, compiled studies (AID 1745844).
[1] abbreviates: mouse, strain B6C3F1, females, in feed, site: liver, lesion: hepatocellular carcinoma, dosed 91 weeks, study length 91 weeks.
[2] abbreviates: mouse, strain B6C3F1, females, in feed, site: liver, lesion: several types, types named in the paper, dosed 91 weeks, study length 91 weeks.
The mark [3] stands for this setting: mouse, strain B6C3F1, females, in feed, site: liver, lesion: several types, types named in the paper, dosed 100 weeks, study length 100 weeks.

Molecules are shown by their SMILES. Values joined by “and” are separate entries in the source; they are usually repeats but may differ in a detail not shown here. Equal entries are not always repeated. Active and inactive are the calls of the source. The rule behind the calls is not given here.

For the molecule `C/C=C/C=C/C(=O)O`, the TD50 (usually the dose at which the toxic effect under study appears in half of the subjects) by setting is: (mouse, strain ASH-CS1, females, in feed, site: liver, lesion: hyperplastic nodule, dosed 80 weeks, study length 80 weeks) 362000 mg/kg/day (inactive); (rat, strain Wistar, females, in feed, site: liver, lesion: hemangioma, dosed 104 weeks, study length 104 weeks) 34000 mg/kg/day (inactive); (rat, strain Wistar, males, in feed, site: any site (literature study), lesion: malignant tumor, dosed 104 weeks, study length 104 weeks) 51400 mg/kg/day (inactive); (rat, strain Wistar, males, in feed, site: any site (literature study), lesion: several types, types named in the paper, dosed 104 weeks, study length 104 weeks) 33900 mg/kg/day (inactive). For the same molecule, the carcinogen call is, setting by setting: (mouse, strain ASH-CS1, females, in feed, site: lung, lesion: adenoma, dosed 80 weeks, study length 80 weeks) “negative (inactive)”; (mouse, strain ASH-CS1, males, in feed, site: liver, lesion: hyperplastic nodule, dosed 80 weeks, study length 80 weeks) “negative (inactive)”; (mouse, strain ASH-CS1, males, in feed, site: lung, lesion: adenoma, dosed 80 weeks, study length 80 weeks) “negative (inactive)”; (rat, strain Wistar, females, in feed, site: any site (literature study), lesion: malignant tumor, dosed 104 weeks, study length 104 weeks) “negative (inactive)”; (rat, strain Wistar, females, in feed, site: any site (literature study), lesion: several types, types named in the paper, dosed 104 weeks, study length 104 weeks) “negative (inactive)”; (rat, strain Wistar, males, in feed, site: liver, lesion: hemangioma, dosed 104 weeks, study length 104 weeks) “negative (inactive)”.
Consider `CCCc1c(OCCCCc2nn[nH]n2)ccc(C(C)=O)c1O`, for which the TD50 was 369 mg/kg/day (mouse, strain B6C3F1, females, in feed, site: liver, lesion: hepatocellular adenoma, dosed 104 weeks, study length 104 weeks); 112 mg/kg/day (mouse, strain B6C3F1, females, in feed, site: liver, lesion: hepatocellular carcinoma, dosed 104 weeks, study length 104 weeks); 2740 mg/kg/day (mouse, strain B6C3F1, males, in feed, site: liver, lesion: hepatocellular adenoma, dosed 104 weeks, study length 104 weeks); 426 mg/kg/day (mouse, strain B6C3F1, males, in feed, site: liver, lesion: hepatocellular carcinoma, dosed 104 weeks, study length 104 weeks).
Turning to `CC(F)(Cl)Cl`, the TD50 (rat, strain Sprague-Dawley, males, inhaled, site: any site (literature study), lesion: several types, types named in the paper, dosed 105 weeks, study length 105 weeks) turned out to be 5790 mg/kg/day and the TD50 (rat, strain Sprague-Dawley, males, inhaled, site: testis, lesion: interstitial-cell adenoma, dosed 105 weeks, study length 105 weeks) is 5260 mg/kg/day.
For `FC(Cl)C(F)(F)F` (configuration not stated), the TD50 was 56300 mg/kg/day (inactive) (rat, strain Charles River CD (Sprague-Dawley), females, inhaled, site: mammary gland, lesion: fibroadenoma, dosed 104 weeks, study length 104 weeks) and 54000 mg/kg/day (inactive) (rat, strain Charles River CD (Sprague-Dawley), females, inhaled, site: mammary gland, lesion: several types, types named in the paper, dosed 104 weeks, study length 104 weeks).
In the case of `CNc1ccc(N(CCO)CCO)cc1[N+](=O)[O-]`, the TD50 was determined as 373 mg/kg/day (mouse, strain B6C3F1, females, in feed, site: any site (literature study), lesion: several types, types named in the paper, dosed 103 weeks, study length 104 weeks); 179 mg/kg/day (mouse, strain B6C3F1, females, in feed, site: liver, lesion: hepatocellular adenoma + hepatocellular carcinoma + neoplastic nodule, dosed 103 weeks, study length 104 weeks); 179 mg/kg/day (mouse, strain B6C3F1, females, in feed, site: liver, lesion: hepatocellular adenoma + hepatocellular carcinoma, dosed 103 weeks, study length 104 weeks); 165 mg/kg/day (mouse, strain B6C3F1, females, in feed, site: liver, lesion: hepatocellular adenoma, dosed 38 weeks, study length 100 weeks); 969 mg/kg/day (mouse, strain B6C3F1, females, in feed, site: liver, lesion: hepatocellular adenoma, dosed 64 weeks, study length 100 weeks); 697 mg/kg/day (mouse, strain B6C3F1, females, in feed, site: liver, lesion: hepatocellular adenoma, dosed 103 weeks, study length 104 weeks). Besides, the TD50 is, setting by setting: (mouse, strain B6C3F1, females, in feed, site: liver, lesion: hepatocellular carcinoma, dosed 38 weeks, study length 100 weeks) 114 mg/kg/day; (mouse, strain B6C3F1, females, in feed, site: liver, lesion: hepatocellular carcinoma, dosed 64 weeks, study length 100 weeks) 94 mg/kg/day; under setting [1], 88.9 mg/kg/day and 148 mg/kg/day; (mouse, strain B6C3F1, females, in feed, site: liver, lesion: hepatocellular carcinoma, dosed 100 weeks, study length 100 weeks) 115 mg/kg/day and 163 mg/kg/day and 87.1 mg/kg/day; (mouse, strain B6C3F1, females, in feed, site: liver, lesion: hepatocellular carcinoma, dosed 103 weeks, study length 104 weeks) 208 mg/kg/day; (mouse, strain B6C3F1, females, in feed, site: liver, lesion: several types, types named in the paper, dosed 38 weeks, study length 100 weeks) 41.3 mg/kg/day. Also, the TD50 reads like this: (mouse, strain B6C3F1, females, in feed, site: liver, lesion: several types, types named in the paper, dosed 64 weeks, study length 100 weeks) 81.5 mg/kg/day; under setting [2], 85 mg/kg/day; under setting [3], 70.6 mg/kg/day and 51.4 mg/kg/day; (mouse, strain B6C3F1, males, in feed, site: any site (literature study), lesion: several types, types named in the paper, dosed 103 weeks, study length 104 weeks) 561 mg/kg/day; (mouse, strain B6C3F1, males, in feed, site: liver + thyroid gland, lesion: hepatocellular carcinoma + follicular-cell adenoma, dosed 103 weeks, study length 104 weeks) 369 mg/kg/day; (mouse, strain B6C3F1, males, in feed, site: liver, lesion: hepatocellular adenoma + hepatocellular carcinoma + neoplastic nodule, dosed 103 weeks, study length 104 weeks) 259 mg/kg/day. The TD50 by setting is: (mouse, strain B6C3F1, males, in feed, site: liver, lesion: hepatocellular adenoma + hepatocellular carcinoma, dosed 103 weeks, study length 104 weeks) 259 mg/kg/day; (mouse, strain B6C3F1, males, in feed, site: liver, lesion: hepatocellular adenoma, dosed 103 weeks, study length 104 weeks) 286 mg/kg/day; (mouse, strain B6C3F1, males, in feed, site: liver, lesion: hepatocellular carcinoma, dosed 103 weeks, study length 104 weeks) 389 mg/kg/day; (mouse, strain B6C3F1, males, in feed, site: thyroid gland, lesion: follicular-cell adenoma, dosed 103 weeks, study length 104 weeks) 2230 mg/kg/day; (rat, strain Fischer 344, females, in feed, site: liver, lesion: hepatocellular adenoma + hepatocellular carcinoma + neoplastic nodule, dosed 103 weeks, study length 104 weeks) 3310 mg/kg/day; (rat, strain Fischer 344, females, in feed, site: lung, lesion: alveolar/bronchiolar adenoma + alveolar/bronchiolar carcinoma, dosed 103 weeks, study length 104 weeks) 702 mg/kg/day. Besides, the TD50 by setting is: (rat, strain Fischer 344, females, in feed, site: lung, lesion: alveolar/bronchiolar carcinoma, dosed 103 weeks, study length 104 weeks) 1190 mg/kg/day; (rat, strain Fischer 344, females, in feed, site: uterus, lesion: endometrial stromal polyp, dosed 103 weeks, study length 104 weeks) 429 mg/kg/day; (rat, strain Fischer 344, males, in feed, site: liver, lesion: hepatocellular adenoma + hepatocellular carcinoma + neoplastic nodule, dosed 103 weeks, study length 104 weeks) 938 mg/kg/day; (rat, strain Fischer 344, males, in feed, site: liver, lesion: hepatocellular carcinoma + neoplastic nodule, dosed 103 weeks, study length 104 weeks) 938 mg/kg/day; (rat, strain Fischer 344, males, in feed, site: liver, lesion: neoplastic nodule, dosed 103 weeks, study length 104 weeks) 1660 mg/kg/day. The carcinogen call is “positive” under setting [1], “positive” under setting [2] and “positive” under setting [3].
Regarding `c1ccc2[nH]c(-c3cscn3)nc2c1`, the TD50 runs as follows: (mouse, strain B6C3F1, males, in feed, site: liver, lesion: hepatocellular adenoma, dosed 52 weeks, study length 52 weeks) 390 mg/kg/day (inactive); (mouse, strain Crj: CD-1 (ICR), females, in feed, site: lung, lesion: alveolar/bronchiolar adenoma, dosed 78 weeks, study length 78 weeks) 4880 mg/kg/day (inactive); (mouse, strain Crj: CD-1 (ICR), females, in feed, site: urinary bladder, lesion: mesenchymal neoplasm, dosed 78 weeks, study length 78 weeks) 16300 mg/kg/day (inactive); (mouse, strain Crj: CD-1 (ICR), males, in feed, site: urinary bladder, lesion: transitional-cell papilloma, dosed 78 weeks, study length 78 weeks) 15000 mg/kg/day (inactive); (rat, strain F344/DuCrj, females, in feed, site: urinary bladder, lesion: transitional-cell papilloma, dosed 104 weeks, study length 104 weeks) 7640 mg/kg/day (inactive); (rat, strain F344/DuCrj, males, in feed, site: kidney, lesion: transitional-cell carcinoma, dosed 104 weeks, study length 104 weeks) 3050 mg/kg/day (inactive). The TD50 (rat, strain F344/DuCrj, males, in feed, site: preputial gland, lesion: adenoma, dosed 104 weeks, study length 104 weeks) was 571 mg/kg/day. In addition, the carcinogen call was “negative (inactive)” (mouse, strain Crj: CD-1 (ICR), females, in feed, site: liver, lesion: one or several types, types not named, dosed 78 weeks, study length 78 weeks); “negative (inactive)” (mouse, strain Crj: CD-1 (ICR), females, in feed, site: lung, lesion: alveolar/bronchiolar carcinoma, dosed 78 weeks, study length 78 weeks); “negative (inactive)” (mouse, strain Crj: CD-1 (ICR), males, in feed, site: liver, lesion: hepatocellular adenoma, dosed 78 weeks, study length 78 weeks); “negative (inactive)” (mouse, strain Crj: CD-1 (ICR), males, in feed, site: liver, lesion: hepatocellular carcinoma, dosed 78 weeks, study length 78 weeks); “negative (inactive)” (mouse, strain Crj: CD-1 (ICR), males, in feed, site: lung, lesion: alveolar/bronchiolar adenoma, dosed 78 weeks, study length 78 weeks); “negative (inactive)” (mouse, strain Crj: CD-1 (ICR), males, in feed, site: lung, lesion: alveolar/bronchiolar carcinoma, dosed 78 weeks, study length 78 weeks). Besides, the carcinogen call reads like this: (rat, strain F344/DuCrj, females, in feed, site: kidney, lesion: transitional-cell carcinoma, dosed 104 weeks, study length 104 weeks) “negative (inactive)”; (rat, strain F344/DuCrj, females, in feed, site: liver, lesion: one or several types, types not named, dosed 104 weeks, study length 104 weeks) “negative (inactive)”; (rat, strain F344/DuCrj, males, in feed, site: liver, lesion: one or several types, types not named, dosed 104 weeks, study length 104 weeks) “negative (inactive)”; (rat, strain F344/DuCrj, males, in feed, site: urinary bladder, lesion: transitional-cell papilloma, dosed 104 weeks, study length 104 weeks) “negative (inactive)”.
